Type in all cases: physicochemical
Data set [1] can be described thus: EC formulation diluted in water and evaporated on the leaf surface, crystal habit. Particulars: dilution at 1% in water. The method, then:
In an example an EC formulation was prepared by dissolving 1 to 500 g/L of fluopyram in a mixture comprising a certain amount of emulsifiers and a certain amount of solvent.

A short description of data set [2]: Ageing of fluopyram suspension concentrate, crystal habit. Particulars: 500 g/L suspension concentrate, 1 month at 40 to 45° C. The protocol:
In an example 500 g/L of fluopyram crystalline active ingredient was added to a mixture of 65 g/L wetters and dispersants, 80 g/L propylene glycol, 2 g/L silicone antifoam in 432 g/L with high shear mixing (Ultra-Turrax®) to reduce the particle size D(v,0.9) to approximately 50 microns, then passed through a bead mill (Eiger® 250 Mini Motormill) to achieve a particles size D(v,0.9) typically 1 to 15 microns. Then a gel composed of 2.4 g/L xanthan and 1 g/L biocide in 117 g/L water was added with low shear mixing (stirrer).

A short description of data set [3]: Aspect ratio of crystals measured from microscopic images of suspension concentrate formulations. Particulars: for Aspect ratio, mean: mean of 10 crystals, tables 5.1 to 5.4; for Crystal shape (FIGS. 3a-3d): microscopic images. The protocol:
In an example the aspect ratio for crystals of fluopyram and other different active ingredients was measured from microscopic images taken from suspension concentrate formulations after crystal growth had occurred, diluted to approximately 1% in water. For the purpose of this invention the length is defined as the longest dimension and the width as the shortest dimension of a 2-dimensional image obtained in a transmission optical microscope. The aspect ratio was determine by the dividing the length by the width.

Where [4] appears, read: Table 6, crystals present in suspension concentrate formulations, from tables 5.1 to 5.4.

The results in this text go back to patent US20210261507A1, “Crystalline Form of Fluopyram” (Bayer Aktiengesellschaft, priority 2018, published 2021).

Several values for one entry are separate records, joined by “and”; a condition that tells them apart may be missing. Identical values can stand only once.

Turning to `O=C(NCCc1ncc(C(F)(F)F)cc1Cl)c1ccccc1C(F)(F)F` [fluopyram, N-{2-[3-chloro-5-(trifluoromethyl)-2-pyridyl]ethyl}-α,α,α-trifluoro-o-tolu amide], the “Crystals produced after dilution and evaporation” value in data set [1] was “needle shaped crystals”. In data set [2], the “Crystal appearance after ageing” value is “needle-like appearance”. Further, in data set [3] (setting [4]), the Aspect ratio came out at 12.02. In data set [3], the “Aspect ratio, mean” value stood at 12.02 and the “Crystal shape (FIGS. 3a-3d)” value is listed as “needle-like habit”.
For `Cc1cc(C)nc(Nc2ccccc2)n1` [pyrimethanil], the Aspect ratio in data set [3] (setting [4]) was 1.44. Besides, in data set [3], the “Aspect ratio, mean” value stood at 1.44 and the “Crystal shape (FIGS. 3a-3d)” value was “cubic shaped forms”.
In the case of `CC(C)(C)C(O)(CCc1ccc(Cl)cc1)Cn1cncn1` (stereo not drawn) [tebuconazole], the Aspect ratio in data set [3] (setting [4]) came to 1.15. For the same molecule, in data set [3], the “Aspect ratio, mean” value came out at 1.15 and the “Crystal shape (FIGS. 3a-3d)” value is “cubic shaped forms”. Moreover, the Aspect ratio in data set [3] (single crystals, length divided by width) is 1.00 and 1.20 and 1.30 and 1.02 and 1.22 and 0.83 and 1.07 and 1.44.
As for `CON=C(C(=O)OC)c1ccccc1CON=C(C)c1cccc(C(F)(F)F)c1` [trifloxystrobin], the Aspect ratio in data set [3] (setting [4]) worked out at 1.25. In data set [3], the “Aspect ratio, mean” value was 1.25 and the “Crystal shape (FIGS. 3a-3d)” value was “cubic shaped forms”.
